Laboratory results reported in US9205121B2, “Echinacea formulation” (Integria Healthcare (Australia) PTY LTD, priority 2004, dated 2015).

How the values were obtained:
Test in all cases: metabolism of 3 by recombinant human P450
Format in all cases: in vitro ADME
P450 2C19 = biological target: T1, P450 2C19 (Homo sapiens, UniProt P33261); conditions: recombinant P450 2C19, preliminary screen
T1 construct: made in house; host or cells: Escherichia coli, bacterial membrane fraction, bicistronic vector; reductase topped up to five fold the P450 concentration
T1 sequence (P33261 whole entry): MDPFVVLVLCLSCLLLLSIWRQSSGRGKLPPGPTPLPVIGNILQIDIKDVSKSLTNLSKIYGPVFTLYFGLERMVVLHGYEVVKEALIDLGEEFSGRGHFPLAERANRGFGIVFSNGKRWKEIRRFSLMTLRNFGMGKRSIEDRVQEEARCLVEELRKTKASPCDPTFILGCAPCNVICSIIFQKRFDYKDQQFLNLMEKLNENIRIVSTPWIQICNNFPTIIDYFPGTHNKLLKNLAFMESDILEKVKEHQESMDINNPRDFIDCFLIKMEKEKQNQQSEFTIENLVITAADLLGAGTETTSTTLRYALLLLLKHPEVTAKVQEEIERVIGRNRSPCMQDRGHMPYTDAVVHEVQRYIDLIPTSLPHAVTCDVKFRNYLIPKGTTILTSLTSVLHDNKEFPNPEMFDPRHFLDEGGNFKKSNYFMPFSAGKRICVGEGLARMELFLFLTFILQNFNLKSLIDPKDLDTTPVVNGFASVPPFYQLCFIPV
From the text: (§1) Recombinant P450s were co-expressed with hNPR in Escherichia coli according to the general procedures outlined previously. Recombinant P450 preparations were obtained from bacteria transformed with bicistronic expression vectors for P450s 1A1, 1A2, 2D6, 2E1 and 3A4 [6]; 1B1 [10]; 2A6 [8]; P450 2B6 [11]; 2C9 (wild type; P450 2C9*1) and 2C19 [12]; 3A5 and 3A7 [12] and 4A11 (D. Kim and F. P. Guengerich, unpublished data). cDNAs for P450s 2C8 and 2C18 were obtained from Prof D. J. Birkett (Flinders University of South Australia) and Prof. Philippe Beaune (INSERM U490, Universite Rene Descartes, Paris V, France) respectively, and bicistronic constructs in pCW were made according to previously published methods. Membranes from cells transformed with the monocistronic expression vector for recombinant human reductase, pCW′/hNPR, were used as a negative control. Expression of P450s and preparation of bacterial membrane fractions was done according to established methods.
(§2) Incubations (0.2 mL) with recombinant enzyme preparations were performed as described above except that bacterial membrane preparations were used at 0.1 μM P450. For P450s 3A4 and 3A5, reductase concentrations were supplemented to two fold the P450 concentration by addition of membranes from cells expressing reductase alone. For P450s 2C9 and 2C19, reductase concentrations were supplemented to five fold the P450 concentration. Negative controls contained bacterial membranes derived from cells transformed with the empty expression vector alone (“pCW”) or cells expressing only reductase (“hNPR”). Negative controls contained membranes added at total protein (“pCW”) or reductase “hNPR”) concentrations at the upper limit of those present in incubations with recombinant P450 preparations.
(§3) A preliminary screen was performed to investigate metabolism of 3 by recombinant human P450s.

P450 1A1 = biological target: T2, P450 1A1 (Homo sapiens, UniProt P04798); conditions: recombinant P450 1A1, preliminary screen
T2 construct: made in house; host or cells: Escherichia coli, bacterial membrane fraction, bicistronic vector
T2 sequence (P04798 1-512): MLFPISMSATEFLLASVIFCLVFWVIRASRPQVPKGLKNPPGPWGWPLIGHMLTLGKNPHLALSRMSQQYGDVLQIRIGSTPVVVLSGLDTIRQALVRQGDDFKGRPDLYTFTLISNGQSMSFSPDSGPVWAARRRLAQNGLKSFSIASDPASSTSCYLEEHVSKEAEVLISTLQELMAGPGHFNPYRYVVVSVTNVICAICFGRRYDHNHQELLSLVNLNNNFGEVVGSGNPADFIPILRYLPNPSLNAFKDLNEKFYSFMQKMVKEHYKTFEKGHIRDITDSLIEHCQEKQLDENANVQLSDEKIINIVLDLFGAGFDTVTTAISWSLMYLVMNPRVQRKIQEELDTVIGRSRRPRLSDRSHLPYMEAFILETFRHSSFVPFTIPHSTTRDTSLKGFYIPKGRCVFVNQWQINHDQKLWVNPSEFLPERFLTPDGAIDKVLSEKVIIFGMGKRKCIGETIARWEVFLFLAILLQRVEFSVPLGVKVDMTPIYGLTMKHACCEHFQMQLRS
From the text: as §1, §2, §3

P450 2C9 = biological target: T3, P450 2C9 (Homo sapiens, UniProt P11712); conditions: recombinant P450 2C9, preliminary screen
T3 construct: made in house; host or cells: Escherichia coli, bacterial membrane fraction, bicistronic vector; reductase topped up to five fold the P450 concentration
T3 sequence (P11712 whole entry): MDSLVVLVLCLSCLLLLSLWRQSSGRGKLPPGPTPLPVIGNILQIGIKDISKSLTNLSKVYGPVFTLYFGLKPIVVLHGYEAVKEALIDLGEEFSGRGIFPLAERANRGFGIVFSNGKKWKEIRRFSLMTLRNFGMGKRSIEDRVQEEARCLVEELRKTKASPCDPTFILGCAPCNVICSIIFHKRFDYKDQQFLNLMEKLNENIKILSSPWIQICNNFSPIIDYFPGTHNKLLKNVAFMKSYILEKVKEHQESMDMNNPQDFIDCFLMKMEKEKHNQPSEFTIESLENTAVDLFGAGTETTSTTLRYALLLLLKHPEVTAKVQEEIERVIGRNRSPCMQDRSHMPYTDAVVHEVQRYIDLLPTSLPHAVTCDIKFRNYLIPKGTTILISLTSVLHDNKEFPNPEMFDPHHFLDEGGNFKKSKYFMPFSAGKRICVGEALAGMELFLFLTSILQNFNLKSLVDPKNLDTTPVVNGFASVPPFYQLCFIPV
From the text: as §1, §2, §3

P450 3A5 = biological target: T4, P450 3A5 (Homo sapiens, UniProt P20815); conditions: recombinant P450 3A5, preliminary screen
T4 construct: made in house; host or cells: Escherichia coli, bacterial membrane fraction, bicistronic vector; reductase topped up to two fold the P450 concentration
T4 sequence (P20815 whole entry): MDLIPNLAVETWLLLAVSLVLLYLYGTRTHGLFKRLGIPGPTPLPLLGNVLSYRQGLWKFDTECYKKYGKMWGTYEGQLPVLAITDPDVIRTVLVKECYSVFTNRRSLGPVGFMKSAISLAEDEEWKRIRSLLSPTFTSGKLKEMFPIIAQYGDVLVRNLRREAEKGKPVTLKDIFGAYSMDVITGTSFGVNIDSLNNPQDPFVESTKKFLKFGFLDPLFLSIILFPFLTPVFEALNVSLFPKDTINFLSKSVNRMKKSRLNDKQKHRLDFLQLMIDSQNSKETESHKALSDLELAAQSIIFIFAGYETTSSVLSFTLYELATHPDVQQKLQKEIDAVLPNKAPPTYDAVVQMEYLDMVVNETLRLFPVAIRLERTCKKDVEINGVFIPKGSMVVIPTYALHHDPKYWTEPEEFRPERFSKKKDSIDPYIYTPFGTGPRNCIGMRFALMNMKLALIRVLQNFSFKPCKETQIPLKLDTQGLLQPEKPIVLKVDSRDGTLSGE
From the text: as §1, §2, §3

P450 2D6 = biological target: T5, P450 2D6 (Homo sapiens, UniProt P10635); conditions: recombinant P450 2D6, preliminary screen
T5 construct: made in house; host or cells: Escherichia coli, bacterial membrane fraction, bicistronic vector
T5 sequence (P10635 whole entry): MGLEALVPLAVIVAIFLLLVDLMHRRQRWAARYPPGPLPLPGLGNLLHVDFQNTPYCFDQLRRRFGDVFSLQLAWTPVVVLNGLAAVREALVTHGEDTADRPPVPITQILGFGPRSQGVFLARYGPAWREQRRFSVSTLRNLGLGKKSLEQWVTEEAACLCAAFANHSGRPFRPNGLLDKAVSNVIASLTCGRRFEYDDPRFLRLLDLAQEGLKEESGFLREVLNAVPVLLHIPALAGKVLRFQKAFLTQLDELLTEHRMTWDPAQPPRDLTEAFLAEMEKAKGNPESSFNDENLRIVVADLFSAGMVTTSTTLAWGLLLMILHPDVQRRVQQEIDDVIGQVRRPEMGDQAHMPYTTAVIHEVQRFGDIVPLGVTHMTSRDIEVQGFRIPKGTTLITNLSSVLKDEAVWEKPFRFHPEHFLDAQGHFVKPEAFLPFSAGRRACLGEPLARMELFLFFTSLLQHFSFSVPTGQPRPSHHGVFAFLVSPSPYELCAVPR
From the text: as §1, §2, §3

P450 2C8 = biological target: T6, P450 2C8 (Homo sapiens, UniProt P10632); conditions: recombinant P450 2C8, preliminary screen
T6 construct: made in house; host or cells: Escherichia coli, bacterial membrane fraction, bicistronic construct in pCW
T6 sequence (P10632 1-490): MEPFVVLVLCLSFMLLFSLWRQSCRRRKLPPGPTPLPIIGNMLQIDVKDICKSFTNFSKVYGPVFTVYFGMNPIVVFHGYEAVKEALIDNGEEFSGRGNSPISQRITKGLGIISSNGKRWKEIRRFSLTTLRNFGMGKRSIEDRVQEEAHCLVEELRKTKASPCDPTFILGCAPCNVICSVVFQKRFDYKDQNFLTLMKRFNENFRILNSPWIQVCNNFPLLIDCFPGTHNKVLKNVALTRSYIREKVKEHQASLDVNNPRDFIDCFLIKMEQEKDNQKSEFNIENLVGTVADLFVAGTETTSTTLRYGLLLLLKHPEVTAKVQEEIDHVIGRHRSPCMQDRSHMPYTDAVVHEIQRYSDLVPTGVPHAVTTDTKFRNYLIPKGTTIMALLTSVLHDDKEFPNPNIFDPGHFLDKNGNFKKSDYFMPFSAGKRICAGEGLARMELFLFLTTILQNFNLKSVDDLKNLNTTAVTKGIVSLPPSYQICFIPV
From the text: as §1, §2, §3

P450 1B1 = biological target: T7, P450 1B1 (Homo sapiens, UniProt Q16678); conditions: recombinant P450 1B1, preliminary screen
T7 construct: made in house; host or cells: Escherichia coli, bacterial membrane fraction, bicistronic vector
T7 sequence (Q16678 1-543): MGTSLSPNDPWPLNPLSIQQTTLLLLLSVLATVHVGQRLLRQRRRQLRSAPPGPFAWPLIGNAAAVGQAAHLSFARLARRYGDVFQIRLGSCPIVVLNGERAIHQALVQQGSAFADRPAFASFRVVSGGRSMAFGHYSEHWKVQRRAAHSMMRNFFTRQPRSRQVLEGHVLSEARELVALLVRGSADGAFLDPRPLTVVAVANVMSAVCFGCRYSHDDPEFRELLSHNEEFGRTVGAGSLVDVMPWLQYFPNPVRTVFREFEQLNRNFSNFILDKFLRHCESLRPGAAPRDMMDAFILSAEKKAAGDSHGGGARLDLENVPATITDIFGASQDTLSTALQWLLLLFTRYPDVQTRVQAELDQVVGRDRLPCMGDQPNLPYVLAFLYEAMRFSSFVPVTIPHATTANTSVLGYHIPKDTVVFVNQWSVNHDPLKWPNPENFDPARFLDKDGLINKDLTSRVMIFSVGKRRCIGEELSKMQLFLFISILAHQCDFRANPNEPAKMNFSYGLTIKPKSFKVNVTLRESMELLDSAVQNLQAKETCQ
From the text: as §1, §2, §3

P450 3A4 = conditions: recombinant P450 3A4, preliminary screen
From the text: as §1, §2, §3

Measured: consumption of 3

C/C=C\C=C/CC/C=C/C=C/C(=O)NCC(C)C [alkylamide 3, (2E,4E,8Z,10Z)—N-isobutyldodeca-2,4,8,10-tetraenamide]
observed: all assays above
